The target in assay [1] is Serine/threonine-protein kinase pim-3 (Homo sapiens) (UniProt Q86V86).
Assay [2] addresses Casein kinase I isoform gamma-1 (Homo sapiens) (UniProt Q9HCP0).
In assay [3] the target is Cyclin-dependent kinase 16 (Homo sapiens) (UniProt Q00536).
For assay [4], the target named is T1, Mitogen-activated protein kinase kinase kinase 5 (Homo sapiens) (UniProt Q99683).
T1 sequence (whole entry): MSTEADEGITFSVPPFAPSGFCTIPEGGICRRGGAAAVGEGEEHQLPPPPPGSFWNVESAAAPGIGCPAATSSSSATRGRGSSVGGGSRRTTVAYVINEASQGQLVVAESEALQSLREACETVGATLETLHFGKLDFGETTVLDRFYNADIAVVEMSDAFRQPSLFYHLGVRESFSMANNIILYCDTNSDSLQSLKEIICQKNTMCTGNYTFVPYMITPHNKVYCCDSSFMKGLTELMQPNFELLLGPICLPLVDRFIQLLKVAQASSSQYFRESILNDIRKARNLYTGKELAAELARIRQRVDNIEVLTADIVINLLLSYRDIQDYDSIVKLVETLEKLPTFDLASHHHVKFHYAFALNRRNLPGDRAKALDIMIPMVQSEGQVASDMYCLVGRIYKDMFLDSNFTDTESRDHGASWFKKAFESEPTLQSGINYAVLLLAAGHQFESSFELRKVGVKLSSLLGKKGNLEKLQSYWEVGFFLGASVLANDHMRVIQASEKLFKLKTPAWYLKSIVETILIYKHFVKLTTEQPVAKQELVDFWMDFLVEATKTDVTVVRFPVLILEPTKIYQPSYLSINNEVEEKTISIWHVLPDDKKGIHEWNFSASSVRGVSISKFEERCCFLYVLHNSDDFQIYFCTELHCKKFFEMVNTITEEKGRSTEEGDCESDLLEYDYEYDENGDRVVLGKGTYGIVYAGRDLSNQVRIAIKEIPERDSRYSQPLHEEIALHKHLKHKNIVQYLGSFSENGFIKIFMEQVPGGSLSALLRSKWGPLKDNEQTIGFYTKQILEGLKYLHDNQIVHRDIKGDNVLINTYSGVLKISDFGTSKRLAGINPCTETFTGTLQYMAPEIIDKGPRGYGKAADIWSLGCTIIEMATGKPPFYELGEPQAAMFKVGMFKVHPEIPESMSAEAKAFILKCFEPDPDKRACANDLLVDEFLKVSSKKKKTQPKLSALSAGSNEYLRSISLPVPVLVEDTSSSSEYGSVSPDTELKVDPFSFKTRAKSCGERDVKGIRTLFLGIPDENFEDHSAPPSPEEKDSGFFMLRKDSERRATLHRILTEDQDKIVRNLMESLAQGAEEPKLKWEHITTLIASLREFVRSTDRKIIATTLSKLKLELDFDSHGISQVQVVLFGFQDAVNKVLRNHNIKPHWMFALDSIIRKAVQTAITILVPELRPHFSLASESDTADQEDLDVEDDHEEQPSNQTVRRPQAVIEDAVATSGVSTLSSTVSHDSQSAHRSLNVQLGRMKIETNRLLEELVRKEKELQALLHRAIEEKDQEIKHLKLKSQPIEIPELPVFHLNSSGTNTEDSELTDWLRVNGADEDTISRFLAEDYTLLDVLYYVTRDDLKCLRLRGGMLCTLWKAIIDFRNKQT

For assay [5], the target named is Serine/threonine-protein kinase 26 (Homo sapiens) (UniProt Q9P289).
Serine/threonine-protein kinase 26 (Homo sapiens), sequence (Q9P289 2-416 limits assumed): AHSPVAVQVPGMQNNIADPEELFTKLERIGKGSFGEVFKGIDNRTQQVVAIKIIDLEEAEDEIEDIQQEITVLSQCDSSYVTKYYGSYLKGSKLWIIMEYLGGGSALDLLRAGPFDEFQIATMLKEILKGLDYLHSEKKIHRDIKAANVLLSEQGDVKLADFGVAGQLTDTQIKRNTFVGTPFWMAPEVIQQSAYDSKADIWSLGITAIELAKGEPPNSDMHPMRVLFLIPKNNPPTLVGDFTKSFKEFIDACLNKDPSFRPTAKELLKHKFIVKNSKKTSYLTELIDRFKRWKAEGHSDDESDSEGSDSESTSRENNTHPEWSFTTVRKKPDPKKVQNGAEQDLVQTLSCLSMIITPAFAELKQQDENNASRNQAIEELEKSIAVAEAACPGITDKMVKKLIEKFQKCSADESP
Assay [6] deals with Ribosomal protein S6 kinase alpha-3 (Homo sapiens) (UniProt P51812).
Ribosomal protein S6 kinase alpha-3 (Homo sapiens), sequence (P51812 whole entry): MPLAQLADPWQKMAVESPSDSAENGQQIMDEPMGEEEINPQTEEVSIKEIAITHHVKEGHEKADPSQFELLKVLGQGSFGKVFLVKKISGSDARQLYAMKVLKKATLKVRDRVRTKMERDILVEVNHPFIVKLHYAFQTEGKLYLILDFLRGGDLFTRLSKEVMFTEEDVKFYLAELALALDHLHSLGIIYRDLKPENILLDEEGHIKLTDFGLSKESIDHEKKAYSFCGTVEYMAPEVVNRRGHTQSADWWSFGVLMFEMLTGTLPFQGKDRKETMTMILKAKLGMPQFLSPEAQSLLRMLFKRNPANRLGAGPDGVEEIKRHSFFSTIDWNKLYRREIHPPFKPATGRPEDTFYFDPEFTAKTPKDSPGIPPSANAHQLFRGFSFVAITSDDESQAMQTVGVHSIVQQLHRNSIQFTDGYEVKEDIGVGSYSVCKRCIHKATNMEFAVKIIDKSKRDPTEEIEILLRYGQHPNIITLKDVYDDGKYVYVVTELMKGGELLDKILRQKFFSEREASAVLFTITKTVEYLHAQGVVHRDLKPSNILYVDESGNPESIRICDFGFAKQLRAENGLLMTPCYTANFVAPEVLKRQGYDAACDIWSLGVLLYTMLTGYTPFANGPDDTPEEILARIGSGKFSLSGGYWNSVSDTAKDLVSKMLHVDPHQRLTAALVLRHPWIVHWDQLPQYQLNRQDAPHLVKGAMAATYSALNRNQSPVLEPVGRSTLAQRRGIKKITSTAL
For assay [7], the target named is Serine/threonine-protein kinase PAK 4 (Homo sapiens) (UniProt O96013).
Serine/threonine-protein kinase PAK 4 (Homo sapiens), sequence (O96013 whole entry, looked up): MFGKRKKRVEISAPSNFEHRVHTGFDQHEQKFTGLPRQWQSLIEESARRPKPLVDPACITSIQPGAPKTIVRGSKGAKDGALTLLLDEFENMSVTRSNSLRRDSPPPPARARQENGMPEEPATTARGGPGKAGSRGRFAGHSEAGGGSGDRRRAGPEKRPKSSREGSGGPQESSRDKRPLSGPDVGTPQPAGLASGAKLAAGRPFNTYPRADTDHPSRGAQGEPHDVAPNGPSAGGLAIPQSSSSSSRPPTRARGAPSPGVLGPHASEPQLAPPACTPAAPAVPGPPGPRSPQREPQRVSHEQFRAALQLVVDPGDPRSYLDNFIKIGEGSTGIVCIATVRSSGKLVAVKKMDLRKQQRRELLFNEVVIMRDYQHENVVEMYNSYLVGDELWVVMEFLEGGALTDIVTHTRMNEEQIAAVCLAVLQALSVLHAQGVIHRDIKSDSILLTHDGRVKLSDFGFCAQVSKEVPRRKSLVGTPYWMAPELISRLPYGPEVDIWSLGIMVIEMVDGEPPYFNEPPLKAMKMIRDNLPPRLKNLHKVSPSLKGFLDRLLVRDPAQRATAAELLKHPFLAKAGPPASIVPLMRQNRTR
In assay [8] the target is T2, Myotonin-protein kinase (Homo sapiens) (UniProt Q09013).
T2 sequence (whole entry): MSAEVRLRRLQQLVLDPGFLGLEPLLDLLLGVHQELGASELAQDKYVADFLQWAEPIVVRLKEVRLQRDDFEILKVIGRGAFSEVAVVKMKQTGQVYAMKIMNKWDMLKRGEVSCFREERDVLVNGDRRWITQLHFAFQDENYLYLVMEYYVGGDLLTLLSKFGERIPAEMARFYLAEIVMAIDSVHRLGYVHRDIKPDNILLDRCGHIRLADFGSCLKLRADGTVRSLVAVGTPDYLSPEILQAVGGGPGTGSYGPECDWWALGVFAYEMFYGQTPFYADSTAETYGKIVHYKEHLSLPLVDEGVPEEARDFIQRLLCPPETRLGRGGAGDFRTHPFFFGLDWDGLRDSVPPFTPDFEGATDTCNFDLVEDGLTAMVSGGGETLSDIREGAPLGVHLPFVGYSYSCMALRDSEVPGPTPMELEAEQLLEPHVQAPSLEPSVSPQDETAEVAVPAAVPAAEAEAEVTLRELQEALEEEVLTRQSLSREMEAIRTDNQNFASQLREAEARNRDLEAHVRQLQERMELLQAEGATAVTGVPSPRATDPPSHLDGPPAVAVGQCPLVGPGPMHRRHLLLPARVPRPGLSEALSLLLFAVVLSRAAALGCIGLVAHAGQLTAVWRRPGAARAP

The target of assay [9] is TRAF2 and NCK-interacting protein kinase (Homo sapiens) (UniProt Q9UKE5).
TRAF2 and NCK-interacting protein kinase (Homo sapiens), sequence (Q9UKE5 whole entry, looked up): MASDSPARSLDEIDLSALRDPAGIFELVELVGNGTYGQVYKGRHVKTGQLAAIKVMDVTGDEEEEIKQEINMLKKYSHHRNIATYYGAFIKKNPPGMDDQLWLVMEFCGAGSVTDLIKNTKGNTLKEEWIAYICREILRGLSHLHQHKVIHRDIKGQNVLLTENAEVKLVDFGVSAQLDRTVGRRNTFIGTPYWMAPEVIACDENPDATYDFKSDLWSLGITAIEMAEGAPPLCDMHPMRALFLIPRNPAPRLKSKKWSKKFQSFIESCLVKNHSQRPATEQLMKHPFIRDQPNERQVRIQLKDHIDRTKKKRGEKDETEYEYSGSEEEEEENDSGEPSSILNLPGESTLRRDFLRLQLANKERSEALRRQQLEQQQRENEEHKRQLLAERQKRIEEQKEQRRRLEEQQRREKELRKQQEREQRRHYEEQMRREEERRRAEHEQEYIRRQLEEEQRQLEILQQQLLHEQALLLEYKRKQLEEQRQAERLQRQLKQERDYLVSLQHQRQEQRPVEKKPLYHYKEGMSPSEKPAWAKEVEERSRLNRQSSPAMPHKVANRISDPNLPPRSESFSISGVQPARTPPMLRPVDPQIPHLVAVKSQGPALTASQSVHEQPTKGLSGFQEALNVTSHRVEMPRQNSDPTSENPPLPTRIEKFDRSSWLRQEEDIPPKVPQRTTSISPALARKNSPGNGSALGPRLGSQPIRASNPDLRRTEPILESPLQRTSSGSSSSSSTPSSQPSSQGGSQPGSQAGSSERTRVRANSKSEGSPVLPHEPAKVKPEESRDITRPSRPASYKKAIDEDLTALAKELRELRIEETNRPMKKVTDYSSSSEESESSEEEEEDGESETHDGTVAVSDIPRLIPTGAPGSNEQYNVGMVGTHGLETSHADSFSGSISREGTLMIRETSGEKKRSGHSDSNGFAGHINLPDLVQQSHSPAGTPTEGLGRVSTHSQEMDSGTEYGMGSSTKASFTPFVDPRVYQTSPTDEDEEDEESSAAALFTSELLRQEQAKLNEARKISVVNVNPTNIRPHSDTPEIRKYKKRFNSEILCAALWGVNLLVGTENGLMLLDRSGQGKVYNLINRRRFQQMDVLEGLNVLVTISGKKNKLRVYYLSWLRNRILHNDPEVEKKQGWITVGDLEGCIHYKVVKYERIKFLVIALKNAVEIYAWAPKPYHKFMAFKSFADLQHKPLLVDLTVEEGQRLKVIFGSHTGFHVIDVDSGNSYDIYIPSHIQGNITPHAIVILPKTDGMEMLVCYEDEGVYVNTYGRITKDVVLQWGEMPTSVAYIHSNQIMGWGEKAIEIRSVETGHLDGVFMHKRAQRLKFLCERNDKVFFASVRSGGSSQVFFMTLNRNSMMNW
For assay [10], the target named is T3, Calcium/calmodulin-dependent protein kinase type IV (Homo sapiens) (UniProt Q16566).
T3 sequence (whole entry): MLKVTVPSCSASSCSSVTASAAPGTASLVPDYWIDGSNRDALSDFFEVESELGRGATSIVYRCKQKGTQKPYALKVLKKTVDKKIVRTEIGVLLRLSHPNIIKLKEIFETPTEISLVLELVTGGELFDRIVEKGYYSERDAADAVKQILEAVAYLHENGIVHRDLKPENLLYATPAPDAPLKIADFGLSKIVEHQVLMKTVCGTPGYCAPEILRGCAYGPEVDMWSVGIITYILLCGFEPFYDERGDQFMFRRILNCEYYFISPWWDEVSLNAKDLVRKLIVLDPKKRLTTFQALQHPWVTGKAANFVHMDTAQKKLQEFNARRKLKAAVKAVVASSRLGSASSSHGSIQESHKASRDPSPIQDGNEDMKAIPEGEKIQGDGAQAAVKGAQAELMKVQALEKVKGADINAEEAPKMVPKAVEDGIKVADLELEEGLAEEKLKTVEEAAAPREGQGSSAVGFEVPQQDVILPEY

Assay [11] addresses Calcium/calmodulin-dependent protein kinase kinase 2 (Homo sapiens, UniProt Q96RR4).

Casein kinase I isoform gamma-1 (Homo sapiens), sequence (Q9HCP0 whole entry, looked up, canonical isoform): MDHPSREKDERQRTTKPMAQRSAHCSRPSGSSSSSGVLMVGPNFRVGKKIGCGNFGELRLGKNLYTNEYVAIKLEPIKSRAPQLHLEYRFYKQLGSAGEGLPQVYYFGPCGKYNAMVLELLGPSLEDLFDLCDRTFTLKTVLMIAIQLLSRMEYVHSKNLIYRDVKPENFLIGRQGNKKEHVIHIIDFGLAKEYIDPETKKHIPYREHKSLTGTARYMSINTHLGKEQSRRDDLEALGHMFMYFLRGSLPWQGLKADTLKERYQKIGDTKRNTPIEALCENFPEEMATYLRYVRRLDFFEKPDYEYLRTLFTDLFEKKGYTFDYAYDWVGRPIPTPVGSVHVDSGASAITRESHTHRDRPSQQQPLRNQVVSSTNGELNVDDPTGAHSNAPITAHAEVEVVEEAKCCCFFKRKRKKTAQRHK
Cyclin-dependent kinase 16 (Homo sapiens), sequence (Q00536 whole entry): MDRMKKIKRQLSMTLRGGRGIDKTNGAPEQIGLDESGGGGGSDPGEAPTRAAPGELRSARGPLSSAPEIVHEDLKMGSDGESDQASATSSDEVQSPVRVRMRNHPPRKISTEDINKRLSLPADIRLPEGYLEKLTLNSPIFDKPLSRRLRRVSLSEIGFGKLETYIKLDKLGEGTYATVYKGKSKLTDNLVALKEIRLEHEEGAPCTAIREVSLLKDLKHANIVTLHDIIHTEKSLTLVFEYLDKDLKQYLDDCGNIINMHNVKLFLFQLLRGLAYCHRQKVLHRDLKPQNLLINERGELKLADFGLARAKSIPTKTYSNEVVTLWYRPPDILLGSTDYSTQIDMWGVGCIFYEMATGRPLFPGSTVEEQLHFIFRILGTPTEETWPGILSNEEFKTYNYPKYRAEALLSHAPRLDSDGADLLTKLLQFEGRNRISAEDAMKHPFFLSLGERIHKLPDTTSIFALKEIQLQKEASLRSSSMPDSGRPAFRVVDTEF
Calcium/calmodulin-dependent protein kinase kinase 2, sequence (Q96RR4 2-588 limits assumed): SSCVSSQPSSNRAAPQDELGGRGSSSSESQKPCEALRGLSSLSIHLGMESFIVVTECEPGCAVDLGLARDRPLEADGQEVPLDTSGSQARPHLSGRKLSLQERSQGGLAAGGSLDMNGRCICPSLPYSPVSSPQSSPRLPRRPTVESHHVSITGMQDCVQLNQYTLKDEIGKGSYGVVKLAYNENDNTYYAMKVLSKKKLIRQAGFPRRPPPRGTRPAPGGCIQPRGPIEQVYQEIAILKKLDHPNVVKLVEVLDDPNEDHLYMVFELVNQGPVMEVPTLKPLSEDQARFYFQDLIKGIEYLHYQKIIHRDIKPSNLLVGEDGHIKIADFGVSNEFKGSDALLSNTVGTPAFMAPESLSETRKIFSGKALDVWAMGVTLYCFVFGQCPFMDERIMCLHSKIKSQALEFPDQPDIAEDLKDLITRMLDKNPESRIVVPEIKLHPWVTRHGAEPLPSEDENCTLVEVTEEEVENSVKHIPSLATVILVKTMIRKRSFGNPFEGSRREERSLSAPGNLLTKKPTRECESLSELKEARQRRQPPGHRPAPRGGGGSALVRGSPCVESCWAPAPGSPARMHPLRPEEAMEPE

The term ΔTm denotes the change in melting temperature against a reference sample. `NC(=O)c1ccc2[nH]c(-c3ccc(Oc4ccc(Cl)cc4)cc3)nc2c1`: the ΔTm in assay [1] was -0.8 °C; in assay [2], 1.7 °C; in assay [3], -1.4 °C; in assay [4], 1 °C; in [5] it was -0.1 °C; in [6], 1 °C. In addition, the ΔTm in assay [7] is 1.3 °C; in assay [8], 1.3 °C; in assay [9], -1.6 °C; in [10], -0.4 °C; in [11] it was 2.4 °C.

Regarding `Cl.Cn1cc(C2=C(c3ccc4cc5n(c4c3)CCC(CN)C5)C(=O)NC2=O)c2ccccc21` (stereo unspecified), the ΔTm in assay [1] was 4.7 °C; in assay [2] it was 0.5 °C; in assay [3], 2.9 °C; in assay [4], 0 °C; in assay [5] it was 1.2 °C; in [6] it was 0.1 °C. Further, the ΔTm in assay [7] is 1.6 °C; in assay [8] it was 6 °C; in assay [9], 0.3 °C; in assay [10], 0.1 °C; in [11], -1.3 °C.

For `COc1cc(OC)c(/C=C2\C(=O)Nc3ccccc32)c(OC)c1`, the ΔTm in assay [1] was 1 °C; in [2], 0.5 °C; in assay [3], -0.7 °C; in assay [4], 0 °C; in assay [5], 0 °C; in [6], 0.1 °C. For the same molecule, the ΔTm in [7] is 0.1 °C; in assay [8], 0.2 °C; in assay [9], 0.8 °C; in [10], -0.1 °C; in [11], 0.4 °C.

`C[S+]([O-])c1ccc(CSc2nc(-c3ccc(F)cc3)c(-c3ccncc3)[nH]2)cc1` (stereo unspecified): the ΔTm in assay [1] was -0.4 °C; in assay [2], 0.2 °C; in assay [3] it was -0.7 °C; in [4], 0.9 °C; in [5] it was 0.4 °C; in assay [6], 0.1 °C. For the same molecule, the ΔTm in assay [7] worked out at 0.1 °C; in [8], 0.5 °C; in assay [9], 0.1 °C; in [10] it was 0 °C; in assay [11], 0.9 °C.

`COc1cc(C[C@H]2C(=O)OC[C@@H]2Cc2ccc(OC)c(OC)c2)ccc1O` [ARCTIGENIN]: the ΔTm in assay [1] is 0.6 °C; in [2] it was 0 °C; in assay [3], -0.1 °C; in [4] it was 0.2 °C; in assay [5] it was -0.3 °C; in assay [6] it was -0.1 °C. In addition, the ΔTm in assay [7] was 0.8 °C; in assay [8] it was 1.4 °C; in assay [9], -0.2 °C; in assay [10] it was -0.5 °C; in [11] it was -0.9 °C.

Turning to `COc1ccc2c(c[n+](C)c3c4cc5c(cc4ccc23)OCO5)c1OC` [CHELERYTHRINE CHLORIDE], the ΔTm in assay [1] was -0.9 °C; in [2] it was 0 °C; in assay [3], -0.2 °C; in assay [4], -0.2 °C; in [5], -1 °C; in assay [6], -0.3 °C. Moreover, the ΔTm is -3.8 °C in assay [7]; 1.7 °C in assay [8]; -1.3 °C in assay [9]; -0.6 °C in assay [10]; -1.6 °C in [11].

Turning to `Cc1nc(N)sc1-c1ccnc(Nc2cccc([N+](=O)[O-])c2)n1`, the ΔTm in assay [1] was found to be 1.8 °C; in assay [2], 3.9 °C; in [3], 3.9 °C; in assay [4] it was 1.2 °C; in assay [5], 0.4 °C; in assay [6] it was 10.7 °C. In addition, the ΔTm in [7] was 1.6 °C; in assay [8] it was 7.6 °C; in assay [9] it was 0.9 °C; in assay [10], 1.8 °C; in [11], 3.6 °C.

`C/C(O)=C(\C#N)C(=O)Nc1cc(Br)ccc1Br`: the ΔTm was 3.8 °C in [1]; 0.7 °C in [2]; -1.1 °C in assay [3]; -0.7 °C in assay [4]; 0.2 °C in assay [5]; 0.2 °C in assay [6]. The ΔTm is -0.3 °C in [7]; 0 °C in [8]; -0.1 °C in assay [9]; 0.1 °C in assay [10]; -0.1 °C in [11].

For `CCOC(=O)c1cnc2oc3ccc(O)cc3c2c1-c1ccccc1`, the ΔTm in [1] was 5.2 °C; in assay [2] it was 1.2 °C; in assay [3] it was -0.6 °C; in assay [4] it was 2.1 °C; in assay [5] it was -0.2 °C; in assay [6], 1 °C. Also, the thermal shift (ΔTm) was 0.7 °C in [7]; -0.4 °C in assay [8]; 1.3 °C in [9]; 0.8 °C in assay [10]; 2.3 °C in assay [11].

Take `C=CNC#N`: the ΔTm in assay [1] is 1 °C; in assay [2], 0.7 °C; in [3] it was 0.4 °C; in [4] it was 0.4 °C; in [5], -1.4 °C; in [6], 1 °C. Moreover, the ΔTm stood at 1.8 °C in assay [7]; 1.3 °C in assay [8]; 0.1 °C in assay [9]; 0.9 °C in assay [10]; 0.9 °C in [11].

Regarding `NCCNc1ncc(C(N)=O)c(Nc2cccc(C(F)(F)F)c2)n1`, the ΔTm in [1] was 1.1 °C; in assay [2], 1 °C; in assay [3], 0.1 °C; in assay [4] it was -0.1 °C; in assay [5], 1 °C; in assay [6] it was 2.6 °C. Moreover, the ΔTm was found to be 6.1 °C in assay [7]; 3.9 °C in [8]; 1.3 °C in [9]; 0.9 °C in assay [10]; 0.6 °C in assay [11].

The values are drawn from ChEMBL document CHEMBL1145498, “A systematic interaction map of validated kinase inhibitors with Ser/Thr kinases” (Proc Natl Acad Sci U S A, 2007).
